Holding throughout (assay type): binding
What all share (parameters): KINOMEscan: ABL1(F317L)-phosphorylated / KINOMEscan: ABL1(H396P)-nonphosphorylated / KINOMEscan: ABL1(H396P)-phosphorylated / KINOMEscan: ABL1(M351T)-phosphorylated / KINOMEscan: ABL1(T315I)-phosphorylated / KINOMEscan: ABL1-nonphosphorylated / KINOMEscan: ABL1-phosphorylated / KINOMEscan: ACVR2A / KINOMEscan: ACVR2B / KINOMEscan: ADCK3 / KINOMEscan: ADCK4 / KINOMEscan: AKT1 / KINOMEscan: AKT3 / KINOMEscan: ALK / KINOMEscan: ARK5 / KINOMEscan: AURKA / KINOMEscan: AURKC / KINOMEscan: BIKE / KINOMEscan: BMPR1A / KINOMEscan: BMPR1B / KINOMEscan: BMX / KINOMEscan: BRK / KINOMEscan: BRSK1 / KINOMEscan: BRSK2 / KINOMEscan: CAMK1 / KINOMEscan: CAMK1D / KINOMEscan: CAMK1G / KINOMEscan: CAMK2A / KINOMEscan: CAMK2B / KINOMEscan: AAK1 / KINOMEscan: CAMK2D / KINOMEscan: CAMK2G / KINOMEscan: ABL1(F317I)-nonphosphorylated / KINOMEscan: ABL1(F317I)-phosphorylated / KINOMEscan: ABL1(F317L)-nonphosphorylated: unit: % Ctrl

The target of assay [1] is T1, panel of 442 kinases (Homo sapiens, UniProt P21802).
T1 construct: purchased KINOMEscan
The following applies: Compound Concentration 10 µM. An excerpt:
(§1) We assessed the selectivity of members of this scaffold using the KINOMEscan methodology across a near comprehensive panel of 442 kinases [[18,27]].

Assay [2] addresses T2, panel of 442 kinases (Homo sapiens, UniProt P27037).
T2 construct: purchased KINOMEscan
Conditions: Compound Concentration 10 µM.
From the text: as §1

For assay [3], the target named is T3, panel of 442 kinases (Homo sapiens, UniProt Q9H0K1).
T3 construct: purchased KINOMEscan
The following applies: kinase SIK2; compound concentration 10 µM.
From the text: as §1

We go through four molecules from article PMC3914206.

T2 sequence (P27037 20-513): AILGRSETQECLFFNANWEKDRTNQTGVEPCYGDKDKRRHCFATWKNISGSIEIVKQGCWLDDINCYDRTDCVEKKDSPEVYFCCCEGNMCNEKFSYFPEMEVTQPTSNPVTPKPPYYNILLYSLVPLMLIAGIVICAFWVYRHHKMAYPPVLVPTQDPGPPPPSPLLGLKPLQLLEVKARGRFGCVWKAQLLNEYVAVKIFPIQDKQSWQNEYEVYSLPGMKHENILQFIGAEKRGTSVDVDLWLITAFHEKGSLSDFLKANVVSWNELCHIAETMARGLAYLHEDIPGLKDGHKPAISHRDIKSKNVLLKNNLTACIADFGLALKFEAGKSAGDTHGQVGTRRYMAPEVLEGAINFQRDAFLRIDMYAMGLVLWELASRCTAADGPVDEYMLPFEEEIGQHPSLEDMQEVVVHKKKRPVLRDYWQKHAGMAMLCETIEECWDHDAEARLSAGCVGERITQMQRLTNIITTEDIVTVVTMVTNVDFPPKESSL
T1 sequence (P21802 22-821): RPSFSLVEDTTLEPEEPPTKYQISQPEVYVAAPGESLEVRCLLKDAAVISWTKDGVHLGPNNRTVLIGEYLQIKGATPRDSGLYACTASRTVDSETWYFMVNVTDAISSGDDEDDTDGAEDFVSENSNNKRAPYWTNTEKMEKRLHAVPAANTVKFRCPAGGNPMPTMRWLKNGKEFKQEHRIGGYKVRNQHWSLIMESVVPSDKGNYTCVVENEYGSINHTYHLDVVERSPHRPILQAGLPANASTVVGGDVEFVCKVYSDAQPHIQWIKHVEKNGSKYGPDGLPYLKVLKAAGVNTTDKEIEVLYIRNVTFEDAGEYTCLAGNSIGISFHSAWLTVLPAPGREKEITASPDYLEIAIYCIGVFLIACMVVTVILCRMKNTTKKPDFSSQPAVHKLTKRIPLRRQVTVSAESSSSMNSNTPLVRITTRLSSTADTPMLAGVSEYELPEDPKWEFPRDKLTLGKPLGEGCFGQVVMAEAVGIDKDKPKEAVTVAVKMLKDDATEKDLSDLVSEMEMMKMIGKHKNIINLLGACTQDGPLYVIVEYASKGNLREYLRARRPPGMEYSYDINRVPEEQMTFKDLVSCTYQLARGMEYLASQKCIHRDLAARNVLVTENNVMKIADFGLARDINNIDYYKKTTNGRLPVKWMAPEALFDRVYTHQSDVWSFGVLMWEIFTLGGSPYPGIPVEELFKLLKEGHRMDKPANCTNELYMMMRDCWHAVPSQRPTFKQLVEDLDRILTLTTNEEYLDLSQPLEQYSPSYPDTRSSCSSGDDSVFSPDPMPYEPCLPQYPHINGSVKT
T3 sequence (Q9H0K1 whole entry): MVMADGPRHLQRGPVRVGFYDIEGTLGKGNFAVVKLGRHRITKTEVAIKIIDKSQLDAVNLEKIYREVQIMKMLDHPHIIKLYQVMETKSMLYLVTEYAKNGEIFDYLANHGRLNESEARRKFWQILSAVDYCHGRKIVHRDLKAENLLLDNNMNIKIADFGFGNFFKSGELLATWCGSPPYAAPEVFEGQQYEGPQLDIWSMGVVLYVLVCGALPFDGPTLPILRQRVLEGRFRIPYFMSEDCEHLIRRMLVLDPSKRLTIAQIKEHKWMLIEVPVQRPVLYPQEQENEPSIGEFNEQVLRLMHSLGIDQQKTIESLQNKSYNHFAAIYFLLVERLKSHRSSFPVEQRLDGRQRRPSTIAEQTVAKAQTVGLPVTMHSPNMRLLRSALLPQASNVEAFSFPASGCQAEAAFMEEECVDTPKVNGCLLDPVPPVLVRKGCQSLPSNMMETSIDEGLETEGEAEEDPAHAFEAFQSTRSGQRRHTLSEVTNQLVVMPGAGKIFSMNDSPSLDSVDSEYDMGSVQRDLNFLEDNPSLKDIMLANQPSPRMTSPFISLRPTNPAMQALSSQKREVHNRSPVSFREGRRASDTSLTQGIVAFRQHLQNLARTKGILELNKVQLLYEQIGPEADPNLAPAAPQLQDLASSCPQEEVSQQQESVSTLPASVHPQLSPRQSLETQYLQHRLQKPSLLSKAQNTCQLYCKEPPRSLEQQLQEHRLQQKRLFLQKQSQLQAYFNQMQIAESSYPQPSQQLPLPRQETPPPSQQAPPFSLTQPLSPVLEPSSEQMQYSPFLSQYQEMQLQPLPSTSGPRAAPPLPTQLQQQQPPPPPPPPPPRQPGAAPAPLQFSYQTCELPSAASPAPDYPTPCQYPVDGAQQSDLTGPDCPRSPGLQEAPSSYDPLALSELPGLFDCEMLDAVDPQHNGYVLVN

For `COc1cc(C(=O)N2CCC(N3CCN(C)CC3)CC2)ccc1Nc1ncc2c(n1)N(C)c1ccccc1C(=O)N2C` [15 (LRRK2-IN-1)], the “KINOMEscan: FGFR2” value at panel of 442 kinases [1] is recorded as 95. The “KINOMEscan: ACVR2A” value at panel of 442 kinases [2] was determined as 100. In addition, the “% Ctrl, SIK2” value at panel of 442 kinases [3] worked out at 98 % Ctrl.

For `COc1cc(C(=O)N2CCC(N3CCN(C)CC3)CC2)ccc1Nc1ncc2c(n1)N1CCc3cccc(c31)C(=O)N2C` [Compound 24], the “KINOMEscan: FGFR2” value at panel of 442 kinases [1] is on record as 83. Moreover, at panel of 442 kinases [2], the “KINOMEscan: ACVR2A” value worked out at 71. Moreover, the “% Ctrl, SIK2” value at panel of 442 kinases [3] is recorded as 81 % Ctrl.

With `COc1cc(C(=O)N2CCC(N3CCN(C)CC3)CC2)ccc1Nc1ncc2c(n1)N(C1CCCC1)c1ccccc1C(=O)N2C` [Compound 25, 11-cyclopentyl-2-((2-methoxy-4-(4-(4-methylpiperazin-1-yl)piperidine-1-carbonyl)phenyl)amino)-5-methyl-5H-benzo[e]pyrimido[5,4-b][1,4]diazepin-6(11H)-one], the “KINOMEscan: FGFR2” value on panel of 442 kinases [1] turned out to be 100. The “KINOMEscan: ACVR2A” value on panel of 442 kinases [2] is given as 93. Moreover, the “% Ctrl, SIK2” value on panel of 442 kinases [3] is given as 95 % Ctrl.

On to `CCOc1cc(C(=O)N2CCC(N3CCN(C)CC3)CC2)ccc1Nc1ncc2c(n1)N(C1CCCC1)c1ccccc1C(=O)N2C` [Compound 26], for which, at panel of 442 kinases [1], the “KINOMEscan: FGFR2” value was determined as 100. The “KINOMEscan: ACVR2A” value at panel of 442 kinases [2] turned out to be 95. Further, the “% Ctrl, SIK2” value at panel of 442 kinases [3] is 100 % Ctrl.
